The target in data set [1] is T1, human A2A adenosine receptors (Homo sapiens, UniProt P29274).
T1 construct: expressed in transfected cells; host or cells: CHO cells
The data set can be described thus: Displacement of [^3H]CGS21680 binding, human A2A adenosine receptors in CHO cells (agonist radioligand). The following applies: read-out: Ki(A2A). Displacement of [^3H]CGS21680 binding to human A2A adenosine receptors exp. in CHO cells.

The target in data set [2] is T2, human A1 adenosine receptors (Homo sapiens, UniProt P30542).
T2 sequence (P30542 1-326): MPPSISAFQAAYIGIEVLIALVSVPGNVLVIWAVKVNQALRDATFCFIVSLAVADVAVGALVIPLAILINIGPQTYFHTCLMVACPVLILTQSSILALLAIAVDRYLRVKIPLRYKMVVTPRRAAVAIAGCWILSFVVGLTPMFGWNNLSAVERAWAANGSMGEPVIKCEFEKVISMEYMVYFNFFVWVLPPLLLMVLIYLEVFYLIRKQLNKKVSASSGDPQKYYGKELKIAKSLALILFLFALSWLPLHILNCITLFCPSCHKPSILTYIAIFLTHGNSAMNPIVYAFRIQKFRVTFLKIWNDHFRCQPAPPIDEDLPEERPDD
The experiment in a line: Displacement of [^3H]CHA binding, human A1 adenosine receptors in CHO cells (agonist radioligand).

In data set [3] the target is T3, human A3 adenosine receptors (Homo sapiens, UniProt P0DMS8).
T3 sequence (P0DMS8 1-318): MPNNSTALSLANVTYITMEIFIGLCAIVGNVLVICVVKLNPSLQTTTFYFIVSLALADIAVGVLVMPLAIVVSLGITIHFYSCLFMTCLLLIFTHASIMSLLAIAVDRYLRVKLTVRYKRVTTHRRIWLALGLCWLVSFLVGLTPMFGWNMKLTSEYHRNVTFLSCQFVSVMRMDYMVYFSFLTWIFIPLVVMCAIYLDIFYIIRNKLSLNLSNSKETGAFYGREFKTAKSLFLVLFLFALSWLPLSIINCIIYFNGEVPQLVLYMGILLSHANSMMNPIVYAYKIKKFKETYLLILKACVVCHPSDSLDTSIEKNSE
Particulars: for A1/A3: ratio Ki(A1)/Ki(A3), agonist radioligands.

The mark [4] stands for this setting: human A2A, CHO cells, [^3H]CGS21680.

Molecules are shown by their SMILES. Like-named read-outs stand apart in the source and are kept apart here.

T1 sequence (P29274 whole entry): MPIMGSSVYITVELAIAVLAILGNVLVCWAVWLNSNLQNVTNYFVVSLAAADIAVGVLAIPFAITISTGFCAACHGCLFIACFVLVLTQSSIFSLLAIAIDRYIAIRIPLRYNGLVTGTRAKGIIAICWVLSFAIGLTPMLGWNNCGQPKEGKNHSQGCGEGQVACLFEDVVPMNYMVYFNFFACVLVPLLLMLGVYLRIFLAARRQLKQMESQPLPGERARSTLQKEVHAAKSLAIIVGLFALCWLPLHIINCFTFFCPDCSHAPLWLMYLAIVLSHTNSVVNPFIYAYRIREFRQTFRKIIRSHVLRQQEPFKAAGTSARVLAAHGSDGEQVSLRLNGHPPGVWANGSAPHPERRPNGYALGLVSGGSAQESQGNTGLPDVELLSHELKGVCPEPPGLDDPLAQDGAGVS

For the molecule `CCNC(=O)[C@H]1O[C@@H](n2cnc3c(NC(=O)Nc4ccccc4S(=O)(=O)Nc4ccc(OC)cc4)ncnc32)C(O)C1O` (stereo partly drawn) [Compound 103, 1-Deoxy-N-ethyl-1-[[6-[[[2-N-(4-methoxyphenyl)-sulfonamidophenyl]amino]carbonyl]amino]-9H-purin-9-yl]-b-D-ribofuran-uronamide], the melting point (in general, the temperature, or range, at which the solid turns liquid) lay within 168 to 170 °C.
The molecule `CCNC(=O)[C@H]1O[C@@H](n2cnc3c(NC(=O)Nc4cccc(S(=O)(=O)NC56C[C@H]7C[C@@H](C5)C[C@@H](C6)C7)c4)ncnc32)C(O)C1O` (stereo partly drawn) [Compound 113, 1-Deoxy-N-ethyl-1-[[6-[[[3-N-(adamantan-1-yl)-sulfonamidophenyl]amino]carbonyl]amino]-9H-purin-9-yl]-b-D-ribofuran-uronamide] returned a melting point of 188 to 189 °C.
Still for that read-out and setting: the result for `CCNC(=O)[C@H]1O[C@@H](n2cnc3c(NC(=O)Nc4ccccc4S(=O)(=O)NC45C[C@H]6C[C@@H](C4)C[C@@H](C5)C6)ncnc32)C(O)C1O` (stereo partly drawn) [Compound 109, 1-Deoxy-N-ethyl-1-[[6-[[[2-N-(adamantan-1-yl)-sulfonamidophenyl]amino]carbonyl]amino]-9H-purin-9-yl]-b-D-ribofuran-uronamide] reads 159 to 161 °C.
`CCNC(=O)[C@H]1O[C@@H](n2cnc3c(NC(=O)Nc4ccc(S(=O)(=O)NC5C=CCC5)cc4)ncnc32)[C@H](O)[C@@H]1O` (stereo partly shown) [Compound 101]: the Ki (usually a measure of affinity in units of concentration, obtained from inhibition or displacement) is more than 1000 nM in data set [1] and 250 nM in data set [2] (read-out: Ki(A1). Displacement of [^3H]CHA binding to human A1 adenosine receptors exp. in CHO cells., human A1, CHO cells, [^3H]CHA, confidence limits in parentheses). For the same molecule, in data set [3], the A1/A3 is given as 13.16.
Molecule `CCNC(=O)[C@H]1O[C@@H](n2cnc3c(NC(=O)Nc4ccccc4S(=O)(=O)N(C)C(C)C)ncnc32)C(O)C1O` (stereo partly drawn) [Compound 107, 1-Deoxy-N-ethyl-1-[[6-[[[2-N-(isopropyl)-N-(methyl)-sulfonamidophenyl]amino]carbonyl]amino]-9H-purin-9-yl]-b-D-ribofuranuron-amide] came in with a melting point of 142 to 144 °C.
Still for that read-out and setting: then `CCNC(=O)[C@H]1O[C@@H](n2cnc3c(NC(=O)Nc4cccc(S(=O)(=O)N5CC=CC5)c4)ncnc32)C(O)C1O` (stereo partly drawn) [Compound 114, 1-Deoxy-N-ethyl-1-[[6-[[[3-(2,5-dihydropyrrol-1-yl)sulfonylphenyl]amino]carbonyl]amino]-9H-purin-9-yl]-b-D-ribofuranuronamide], with 145 to 146 °C; and `CCNC(=O)[C@H]1O[C@@H](n2cnc3c(NC(=O)Nc4ccccc4S(N)(=O)=O)ncnc32)C(O)C1O` (stereo partly drawn) [Compound 106, 1-Deoxy-N-ethyl-1-[[6-[[(2-sulfonamidophenyl)amino]-carbonyl]amino]-9H-purin-9-yl]-b-D-ribofuranuronamide], with 188 to 189 °C.
The molecule `CCNC(=O)[C@H]1O[C@@H](n2cnc3c(NC(=O)Nc4ccc(S(=O)(=O)N(C)C)cc4)ncnc32)C(O)C1O` (stereo partly drawn) [Compound 98, 1-Deoxy-1-[6-[[[[4-[N,N-(dimethyl)amino-sulfonyl]phenyl]amino]carbonyl]amino]-9H-purin-9-yl]-N-ethyl-β-D-ribofuranuronamide] showed a melting point of 176 °C. Moreover, in data set [1] (setting [4]), the Ki is more than 1000 nM. Also, the affinity in data set [2] corresponds to a Ki of 280 nM.
On to `CCNC(=O)[C@H]1O[C@@H](n2cnc3c(NC(=O)Nc4cccc(S(=O)(=O)Nc5ccc(OC)cc5)c4)ncnc32)C(O)C1O` (stereo partly drawn) [Compound 105, 1-Deoxy-N-ethyl-1-[[6-[[[3-N-(4-methoxyphenyl)-sulfonamidophenyl]amino]carbonyl]amino]-9H-purin-9-yl]-b-D-ribofuran-uronamide], for which the melting point is 206 to 208 °C (dec.).
Turning to `C=CCN(CC=C)S(=O)(=O)c1ccc(NC(=O)Nc2ncnc3c2ncn3[C@@H]2O[C@H](C(=O)NCC)[C@@H](O)[C@H]2O)cc1` [Compound 99, 1-Deoxy-1-[6-[[[[4-[N,N-bis(allyl)amino-sulfonyl]phenyl]amino]carbonyl]amino]-9H-purin-9-yl]-N-ethyl-β-D-ribofuranuronamide], the melting point was found to be 126 °C. For the same molecule, in data set [1] (setting [4]), the Ki was more than 1000 nM. The molecule also had a Ki in data set [2] of 380 nM. Also, in data set [3], affinity was put at a Ki of 10 nM and the A1/A3 stood at 38.
For `CCNC(=O)[C@H]1O[C@@H](n2cnc3c(NC(=O)Nc4ccc(S(=O)(=O)N(CC)CC)cc4)ncnc32)[C@H](O)[C@@H]1O` [Compound 100, 1-Deoxy-1-[6-[[[[4-[N,N-bis(ethyl)amino-sulfonyl]phenyl]amino]carbonyl]amino]-9H-purin-9-yl]-N-ethyl-β-D-ribofuranuronamide], the melting point is 168 °C. In addition, the Ki in data set [1] (setting [4]) was more than 1000 nM.
For `CCCCCNS(=O)(=O)c1cccc(NC(=O)Nc2ncnc3c2ncn3[C@@H]2O[C@H](C(=O)NCC)C(O)C2O)c1` (stereo partly drawn) [Compound 104, 1-Deoxy-N-ethyl-1-[[6-[[[3-N-(pentyl)-sulfonamido-phenyl]amino]carbonyl]amino]-9H-purin-9-yl]-b-D-ribofuranuronamide], the melting point fell in the range of 158 to 159 °C.
Still for that read-out and setting: then `CCNC(=O)[C@H]1O[C@@H](n2cnc3c(NC(=O)Nc4cccc(S(=O)(=O)N(C)C(C)C)c4)ncnc32)C(O)C1O` (stereo partly drawn) [Compound 112, 1-Deoxy-N-ethyl-1-[[6-[[[3-N-(isopropyl)-N-(methyl)-sulfonamidophenyl]amino]carbonyl]amino]-9H-purin-9-yl]-b-D-ribofuranuron-amide], with 147 to 148 °C.
`CCNC(=O)[C@H]1O[C@@H](n2cnc3c(NC(=O)Nc4ccccc4S(=O)(=O)N4CC=CC4)ncnc32)C(O)C1O` (stereo partly drawn) [Compound 110, 1-Deoxy-N-ethyl-1-[[6-[[[2-(2,5-dihydropyrrol-1-yl)sulfonylphenyl]amino]carbonyl]amino]-9H-purin-9-yl]-b-D-ribofuranuronamide]: the melting point lay in the range of 149 to 151 °C.
The same measure, in the same setting: the result for `CCCCCNS(=O)(=O)c1ccccc1NC(=O)Nc1ncnc2c1ncn2[C@@H]1O[C@H](C(=O)NCC)C(O)C1O` (stereo partly drawn) [Compound 108, 1-Deoxy-N-ethyl-1-[[6-[[[2-N-(pentyl)-sulfonamido-phenyl]amino]carbonyl]amino]-9H-purin-9-yl]-b-D-ribofuranuronamide] reads 155 to 157 °C.
Regarding `CCCN(CCC)S(=O)(=O)c1ccc(NC(=O)Nc2ncnc3c2ncn3[C@@H]2O[C@H](C(=O)NCC)[C@@H](O)[C@H]2O)cc1` [Compound 102, 1-Deoxy-1-[6-[[[[4-[N,N-bis(propyl)aminosulfonyl]phenyl]amino]-carbo-nyl]amino]-9H-purin-9-yl]-N-ethyl-β-D-ribofuranuronamide], the Ki in data set [1] (setting [4]) was more than 1000 nM; in data set [2], 350 nM; in data set [3] it was 14 nM.
On to `CCNC(=O)[C@H]1O[C@@H](n2cnc3c(NC(=O)Nc4ccc(S(=O)(=O)N(C)C(C)C)cc4)ncnc32)C(O)C1O` (stereo partly drawn) [Compound 97, 1-Deoxy-1-[6-[[[[4-[N-(1-methylethyl)-N-(methyl)-aminosulfonyl]phenyl]amino]carbo-nyl]amino]-9H-purin-9-yl]-N-ethyl-β-D-ribofuranuronamide], for which the melting point was determined as 140 °C.

The record behind these values is patent US7511133B2, “Adenosine A3 receptor agonists” (King Pharmaceuticals Research and Development, Inc., priority 2003, dated 2009).
